Test results: ChEMBL document CHEMBL4765464, “Discovery of BMS-986144, a Third-Generation, Pan-Genotype NS3/4A Protease Inhibitor for the Treatment of Hepatitis C Virus Infection” (J Med Chem, 2020)

Legend:
[1] = Inhibition of recombinant full length NS3/4A protease in Hepatitis C virus subtype 3a infected in human HuH7 cells using Ac-Asp-Glu-Asp (EDANS)-Glu-Glu-Abu-(COO) Ala-Ser-Lys (DABCYL)-NH2 as substrate by FRET assay; settings: Huh-7
[2] = Inhibition of recombinant full length NS3/4A protease in Hepatitis C virus subtype 1a replicon infected in human HuH7 cells preincubated for 3 days followed by substrate addition and measured after 2 hrs by renilla luciferase reporter gene assay; format: cell-based; settings: Huh-7
[3] = Inhibition of recombinant full length NS3/4A protease in Hepatitis C virus subtype 1b replicon infected in human HuH7 cells preincubated for 3 days followed by substrate addition and measured after 2 hrs by renilla luciferase reporter gene assay; format: cell-based; settings: Huh-7
[4] = Inhibition of recombinant full length NS3/4A protease in Hepatitis C virus subtype 2a replicon infected in human HuH7 cells preincubated for 3 days followed by substrate addition and measured after 2 hrs by renilla luciferase reporter gene assay; format: cell-based; settings: Huh-7
[5] = Inhibition of recombinant full length NS3/4A protease in Hepatitis C virus subtype 3a replicon infected in human HuH7 cells preincubated for 3 days followed by substrate addition and measured after 2 hrs by renilla luciferase reporter gene assay; format: cell-based; settings: Huh-7
[6] = Inhibition of recombinant full length NS3/4A R155K mutant protease in Hepatitis C virus subtype 1a replicon infected in human HuH7 cells preincubated for 3 days followed by substrate addition and measured after 2 hrs by renilla luciferase reporter gene assay; format: cell-based; settings: Huh-7
[7] = Inhibition of recombinant full length NS3/4A D168V mutant protease in Hepatitis C virus subtype 1b replicon infected in human HuH7 cells preincubated for 3 days followed by substrate addition and measured after 2 hrs by renilla luciferase reporter gene assay; format: cell-based; settings: Huh-7
[8] = Metabolic stability in human liver microsomes assessed as half-life incubated for 5 to 45 mins in presence of NADPH by LC-MS analysis; format: ADME, Microsome; settings: time 5-45 min
[9] = Clearance in rat at 1 mg/kg, iv; format: ADME, organism-based; settings: in vivo
[10] = Half life in rat at 1 mg/kg, iv; format: ADME, organism-based; settings: in vivo
[11] = Cmax in rat at 5 mg/kg, po; format: ADME, organism-based; parameters: route oral, dose 5 mg/kg; settings: in vivo
[12] = Drug concentration in rat plasma at 5 mg/kg, po measured upto 24 hrs; format: ADME, organism-based; settings: read-out: Ct
[13] = Drug concentration in rat liver at 5 mg/kg, po measured upto 24 hrs; format: ADME, organism-based; settings: read-out: Ct
[14] = Ratio of drug concentration in liver to plasma in rat at 5 mg/kg, po measured upto 24 hrs; format: ADME, organism-based; settings: liver and plasma
[15] = Oral bioavailability in rat at 5 mg/kg; format: ADME, organism-based; settings: in vivo
[16] = Half-life in dog at 3 mg/kg, po or 1 mg/kg, iv; format: ADME, organism-based, Canis lupus familiaris; settings: in vivo
[17] = Half-life in rat at 5 mg/kg, po or 1 mg/kg, iv; format: ADME, organism-based; settings: in vivo
[18] = Clearance in rat at 5 mg/kg, po or 1 mg/kg, iv; format: ADME, organism-based; settings: in vivo
[19] = Oral bioavailability in dog at 3 mg/kg; format: ADME, organism-based, Canis lupus familiaris; settings: in vivo
[20] = AUC in dog at 3 mg/kg, po or 1 mg/kg, iv; format: ADME, organism-based, Canis lupus familiaris; parameters: dose 3 mg/kg; settings: in vivo
[21] = Drug concentration in dog plasma at 3 mg/kg, po measured upto 24 hrs; format: ADME, organism-based, Canis lupus familiaris; settings: read-out: Ct
[22] = Half-life in cynomolgus monkey at 3 mg/kg, po or 1 mg/kg, iv; format: ADME, organism-based, Macaca fascicularis; settings: in vivo
[23] = Oral bioavailability in cynomolgus monkey at 3 mg/kg; format: ADME, organism-based, Macaca fascicularis; settings: in vivo
[24] = AUC in cynomolgus monkey at 3 mg/kg, po or 1 mg/kg, iv; format: ADME, organism-based, Macaca fascicularis; parameters: dose 3 mg/kg; settings: in vivo
[25] = Drug concentration in cynomolgus monkey plasma at 3 mg/kg, po measured upto 24 hrs; format: ADME, organism-based, Macaca fascicularis; settings: read-out: Ct
[26] = Inhibition of HCV 1a NS3/4A protease; parameters: species or system Hepatitis C virus subtype 1a
[27] = Inhibition of HCV 1b NS3/4A protease; parameters: species or system Hepatitis C virus subtype 1b
[28] = Inhibition of HCV 2b NS3/4A protease; parameters: species or system Hepatitis C virus subtype 2b
[29] = Inhibition of HCV 3a NS3/4A protease; parameters: species or system Hepatitis C virus subtype 3a
[30] = Inhibition of HCV 5a NS3/4A protease; parameters: species or system Hepatitis C virus subtype 5a
[31] = Inhibition of HCV 6a NS3/4A protease; parameters: species or system Hepatitis C virus subtype 6a
[32] = Inhibition of HCV 1a NS3/4A protease preincubated for 45 mins in presence of compound; parameters: species or system Hepatitis C virus subtype 1a
[33] = Inhibition of HCV 1b NS3/4A protease preincubated for 45 mins in presence of compound; parameters: species or system Hepatitis C virus subtype 1b
[34] = Inhibition of HCV 2a NS3/4A protease preincubated for 45 mins in presence of compound; parameters: species or system Hepatitis C virus subtype 2a
[35] = Inhibition of HCV 2b NS3/4A protease preincubated for 45 mins in presence of compound; parameters: species or system Hepatitis C virus subtype 2b
[36] = Inhibition of HCV 4a NS3/4A protease preincubated for 45 mins in presence of compound; parameters: species or system Hepatitis C virus subtype 4a
[37] = Inhibition of HCV 5a NS3/4A protease preincubated for 45 mins in presence of compound; parameters: species or system Hepatitis C virus subtype 5a
[38] = Selectivity index, ratio of IC50 for inhibition of HCV 1b NS3/4A protease to IC50 for inhibition of HCV 1b NS3/4A protease preincubated for 45 mins in presence of compound
[39] = Selectivity index, ratio of IC50 for inhibition of HCV 2a NS3/4A protease to IC50 for inhibition of HCV 2a NS3/4A protease preincubated for 45 mins in presence of compound
[40] = Selectivity index, ratio of IC50 for inhibition of HCV 2b NS3/4A protease to IC50 for inhibition of HCV 2b NS3/4A protease preincubated for 45 mins in presence of compound
[41] = Selectivity index, ratio of IC50 for inhibition of HCV 3a NS3/4A protease to IC50 for inhibition of HCV 3a NS3/4A protease preincubated for 45 mins in presence of compound
[42] = Selectivity index, ratio of IC50 for inhibition of HCV 4a NS3/4A protease to IC50 for inhibition of HCV 4a NS3/4A protease preincubated for 45 mins in presence of compound
Cytochrome P450 3A4 [43] = biological target: T1, Cytochrome P450 3A4 (Homo sapiens, UniProt P08684); assay: Inhibition of human CYP3A4 in human pooled liver microsomes at 0.002 to 40 uM in presence of testosterone as substrate preincubated in presence of NADPH followed by addition of substrate by LC-MS/MS analysis; format: ADME; settings: TDE = time-dependent effect, dose 0.002-40 µM, time <=30 min
Cytochrome P450 3A4 [44] = biological target: T1, Cytochrome P450 3A4; assay: Inhibition of human CYP3A4 in human pooled liver microsomes in presence of testosterone as substrate preincubated for 0 mins in presence of NADPH followed by addition of substrate by LC-MS/MS analysis; format: ADME
Cytochrome P450 3A4 [45] = biological target: T1, Cytochrome P450 3A4; assay: Inhibition of human CYP3A4 in human pooled liver microsomes in presence of midazolam as substrate preincubated for 0 mins in presence of NADPH followed by addition of substrate by LC-MS/MS analysis; format: ADME
Cytochrome P450 3A4 [46] = biological target: T1, Cytochrome P450 3A4; assay: Inhibition of human CYP3A4 in human pooled liver microsomes in presence of midazolam as substrate preincubated for 30 mins in presence of NADPH followed by addition of substrate by LC-MS/MS analysis; format: ADME

T1 sequence (P08684 whole entry): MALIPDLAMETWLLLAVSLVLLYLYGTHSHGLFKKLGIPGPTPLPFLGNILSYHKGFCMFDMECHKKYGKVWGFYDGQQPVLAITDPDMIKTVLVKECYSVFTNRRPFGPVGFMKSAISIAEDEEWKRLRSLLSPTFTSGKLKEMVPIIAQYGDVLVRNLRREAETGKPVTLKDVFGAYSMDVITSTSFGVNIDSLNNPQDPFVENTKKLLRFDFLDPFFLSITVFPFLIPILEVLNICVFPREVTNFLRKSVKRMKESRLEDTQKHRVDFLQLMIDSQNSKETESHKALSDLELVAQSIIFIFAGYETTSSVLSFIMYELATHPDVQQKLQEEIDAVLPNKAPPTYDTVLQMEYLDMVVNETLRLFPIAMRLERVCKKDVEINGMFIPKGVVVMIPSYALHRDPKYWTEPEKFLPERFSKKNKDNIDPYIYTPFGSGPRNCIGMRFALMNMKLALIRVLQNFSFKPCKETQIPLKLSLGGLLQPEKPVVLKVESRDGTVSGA

With `CC[C@@H]1C[C@H](C)CC/C=C\[C@@H]2C[C@@]2(C(=O)NS(=O)(=O)C2(C)CC2)NC(=O)[C@@H]2C[C@@H](Oc3nccc4cc(OC)c(F)cc34)CN2C(=O)[C@H]1NC(=O)OC(C)(C)C(F)(F)F` the IC50 [1] was 6.3 nM, the EC50 [2] was 2.8 nM and the EC50 [3] was 1.1 nM. The EC50 [4] was 1.4 nM, the EC50 [5] was 14 nM and the EC50 [6] was 11 nM. It also gave an EC50 [7] of 6 nM, a half-life [8] of 0.467 h and a clearance [9] of 0.3 mL/min/kg. It also gave a half-life [10] of 9.3 h, a Cmax [11] of 12.1 µM and a concentration at 24 h [12] of 3.85 µM. For the same molecule, the concentration at 24 h [13] was 5.83 µM, the Kp at 24 h [14] was 1.5 and the bioavailability [15] was 50%. It also gave a half-life [16] of 8.2 h, a half-life [17] of 9.3 h and a clearance [18] of 0.3 mL/min/kg. It also gave a bioavailability [19] of 87%, an AUC [20] of 81 µM·h and a concentration at 24 h [21] of 0.838 µM. For the same molecule, the half-life [22] was 3 h, the bioavailability [23] was 14% and the AUC [24] was 0.898 µM·h. It also gave a concentration at 24 h [25] of 0.001 µM, an IC50 [26] of 0.8 nM and an IC50 [27] of 0.6 nM. The IC50 [28] was 2 nM, the IC50 [29] was 5.6 nM and the IC50 [30] was 1 nM. The IC50 [31] was 0.7 nM, the IC50 [32] was 0.2 nM and the IC50 [33] was 0.1 nM. For the same molecule, the IC50 [34] was 0.2 nM, the IC50 [35] was 0.9 nM and the IC50 [36] was 0.1 nM. The IC50 [37] was 0.1 nM, the Selectivity Index [38] was 6 and the Selectivity Index [39] was 3.5. The Selectivity Index [40] was 2, the Selectivity Index [41] was 1 and the Selectivity Index [42] was 9. For the same molecule, the “inhibition (INH)” value (Cytochrome P450 3A4 [43]) was “Tde”, the IC50 (Cytochrome P450 3A4 [44]) was > 40000 nM and the IC50 (Cytochrome P450 3A4 [45]) was > 40000 nM. It also gave an IC50 (Cytochrome P450 3A4 [46]) of 2850 nM.
